Laboratory results from patent publication US20060166867A1, “Novel conjugates of polysaccharides and uses thereof” (priority 2003, published 2006).
Values joined by “and” are separate entries in the source; they are usually repeats but may differ in a detail not shown here. Equal values may be shown once.

Tests used:
[1] = system: Enterobacter cloacae W25161; details: Gram negative clinical isolate
S. aureus MRSA [2] = details: Gram positive clinical isolate
CXCR4 = target: T1, CXCR4 (Homo sapiens, UniProt P61073); assay: Competition with 12G5 mAb binding to CXCR4 on MT2 cells (flow cytometry)
T1 construct: incubated at 4° C. with anti-CXCR4 mAb, 12G5, conjugated to phycoerithrine (PE); endogenous in cells; host or cells: MT2 cells
Method: Interaction of pAACs and arginine peptides with CXCR4 coreceptor: Interactions of pAACs and arginine-peptides with CXCR4 were determined by flow cytometry (FACS-Scan, Becton Dickinson) as previously described (Litovich (2001) supra). In brief, 0.5×10^6 MT2 cells were washed with ice-cold PBS containing 0.1% sodium azide (wash buffer) and were incubated at 4° C. with anti-CXCR4 mAb, 12G5, conjugated to phycoerithrine (PE), in the absence or presence of different concentrations of pAACs and arginine peptides. After 30 minutes of incubation, the cells were washed with ice-cold wash buffer and fixed in PBS containing 1% paraformaldehyde. Non-specific fluorescence was assessed using an isotype control. For each sample 10,000 events were acquired. Data were analyzed and processed using CellQuest™ software (Becton Dickinson).

[3] = system: P. aeruginosa-gentamicin^s, meropenem^s; details: Gram negative clinical isolate
[4] = system: Pseudomonas aeruginosa ATCC 27853; details: Gram negative reference strain
E. Coli-ESBL positive [5] = details: Gram negative clinical isolate
S. aureus MSSA [6] = details: Gram positive clinical isolate
S. epidermidis MRSE [7] = details: Gram positive clinical isolate
E. Coli-ESBL negative [8] = details: Gram negative clinical isolate
in vitro = format: cell-based; details: human; Table 4; tryphan blue exclusion assay for MT2 cells; read-out: Cytotoxicity
Method: Cytotoxicity of the various pAACs was determined using the trypan blue exclusion assay. In brief, a sample of the cell suspension was diluted 1:1 (v/v) with 0.4% trypan blue and the cells were counted using a hemocytometer. Results are expressed as the percentage of dead cells.
(§1) HIV-1 isolates were propagated by subculture in MT2 cells (Litovchick et al. (2001) supra). Aliquots of cell-free culture supernatants were used as viral inoculum. PAACs were dissolved in the RPMI 1640 medium. Cytotoxicity determinations were carried out in MT2 cells by trypan blue exclusion assay. Viral inhibition was determined by incubating MT2 or cMAGI HIV-1 reporter cells with 0.2-0.5 multiplicity of infection of HIV-1 wild type or resistant virus for 4 days at 37° C. in the presence or absence of various concentrations of pAACs. HIV-1 infection of cMAGI cells was determined by counting the number of HIV-1-infected cells (stained blue). The cytopathic effects of the viral infection of MT2 cells were also analyzed by microscopic assessment of syncytium formation.

A. baumannii R16998 = details: Gram negative clinical isolate
Enterobacter aerogenes [9] = details: Gram negative clinical isolate
[10] = system: K. pneumoniae-ESBL positive; details: Gram negative clinical isolate
[11] = system: Staphylococcus aureus ATCC 24213; details: Gram positive reference strain
[12] = system: Acinetobacter baumannii ATCC 19606; details: Gram negative reference strain
E. Coli B3095141^r [13] = details: clinical isolate, Table 7
[14] = system: P. aeruginosa-gentamicin^r, meropenem^r; details: Gram negative clinical isolate
[15] = system: Klebsiella pneumoniae ATCC 13883; details: Gram negative reference strain
[16] = system: HIV-1 clinical isolate Clade A; format: cell-based; details: Table 4; read-out: EC50 Clade A
Method: (§2) Inhibition of HIV-1 cell replication was tested using the cMAGI assay, which is based on the ability of HIV-1 TAT to transactivate the expression of an integrated β-galactosidase reporter gene driven by the HIV-LTR (B. Chackeria et al., J. Virol., (1997) 71, 3932; Collins et al., Nat. Med. (2000) 6, 475). The β-galactosidase reporter is modified to remain localized in the nucleus where it can be detected with the X-gal (5-bromo-4-chloro-3indoyl-β-D-galactopyranoside) substrate as an intense nuclear stain within a few days of infection.
as §1

HIV-1 Ba-L = format: cell-based; details: Table 4
Method: as §2, §1

[17] = system: HIV-1 clinical isolate Clade C; format: cell-based; details: Table 4; read-out: EC50 Clade C
Method: as §2, §1

[18] = system: HIV-1 NeoR6 resistant virus; format: cell-based; details: read-out: EC50 NeoR6^Res; Table 4
Method: as §2, §1

[19] = system: HIV-1 AZT resistant virus; format: cell-based; details: Table 4; read-out: EC50 AZT^Res
Method: as §2, §1

[20] = system: HIV-1 Protease resistant virus; format: cell-based; details: Table 4; read-out: EC50 Protease^Res
Method: as §2, §1

[21] = system: Escherichia coli ATCC 25922; details: Gram negative reference strain
[22] = system: A. baumannii-amikacin^r, meropenem^r; details: Gram negative clinical isolate
HIV-1 IIIB = assay: microbe, parasite or virus in culture; format: cell-based; details: Table 4; read-out: EC50 IIIB
How it was run: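 cMAGI β-galactosidase reporter cells or MT2 cells infected at 0.2-0.5 MOI with wild-type or resistant HIV-1 and incubated 4 days at 37 °C with varying compound concentrations. Infection scored by counting X-gal-stained blue cMAGI cells; MT2 syncytium formation assessed microscopically, cytotoxicity by trypan blue exclusion.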

[23] = system: Proteus mirabilis ATCC 7002; details: Gram negative reference strain
S. epidermidis MSSE [24] = details: Gram positive clinical isolate
[25] = system: Enterococcus faecalis-vancomycin^r; details: clinical isolate, Table 7
[26] = system: K. pneumoniae-ESBL negative; details: Gram negative clinical isolate
[27] = system: A. baumannii-amikacin^s, meropenem^s; details: Gram negative clinical isolate
Enterobacter cloacae = details: Gram negative clinical isolate
S. epidermidis MRSE [28] = assay: Gentamycin Disk Diffusion test; format: cell-based, Staphylococcus epidermidis; details: disk method
S. epidermidis MSSE [29] = assay: Gentamycin Disk Diffusion test; format: cell-based, Staphylococcus epidermidis; details: disk method
E. Coli-ESBL positive [30] = assay: Gentamycin Disk Diffusion test; format: cell-based, Escherichia coli; details: disk method
[31] = system: A. baumannii-amikacin^r, meropenem^r; assay: Gentamycin Disk Diffusion test; format: cell-based, Acinetobacter baumannii; details: disk method
[32] = system: A. baumannii-amikacin^s, meropenem^s; assay: Gentamycin Disk Diffusion test; format: cell-based, Acinetobacter baumannii; details: disk method
Enterobacter aerogenes [33] = assay: Gentamycin Disk Diffusion test; format: cell-based; details: disk method
S. aureus MRSA [34] = assay: Gentamycin Disk Diffusion test; format: cell-based, Staphylococcus aureus; details: disk method
E. Coli-ESBL negative [35] = assay: Gentamycin Disk Diffusion test; format: cell-based, Escherichia coli; details: disk method
A. baumannii R16998^r = assay: Gentamycin Disk Diffusion test; format: cell-based, Acinetobacter baumannii; details: disk method
E. Coli B3095141^r [36] = assay: Gentamycin Disk Diffusion test; format: cell-based, Escherichia coli; details: disk method
[37] = system: Enterobacter cloacae W25161^r; assay: Gentamycin Disk Diffusion test; format: cell-based; details: disk method
[38] = system: Enterococcus faecalis-vancomycin^r; assay: Gentamycin Disk Diffusion test; format: cell-based; details: disk method
[39] = system: K. pneumoniae-ESBL negative; assay: Gentamycin Disk Diffusion test; format: cell-based, Klebsiella pneumoniae; details: disk method
[40] = system: K. pneumoniae-ESBL positive; assay: Gentamycin Disk Diffusion test; format: cell-based, Klebsiella pneumoniae; details: disk method
S. aureus MSSA [41] = assay: Gentamycin Disk Diffusion test; format: cell-based, Staphylococcus aureus; details: disk method

T1 sequence (P61073 whole entry): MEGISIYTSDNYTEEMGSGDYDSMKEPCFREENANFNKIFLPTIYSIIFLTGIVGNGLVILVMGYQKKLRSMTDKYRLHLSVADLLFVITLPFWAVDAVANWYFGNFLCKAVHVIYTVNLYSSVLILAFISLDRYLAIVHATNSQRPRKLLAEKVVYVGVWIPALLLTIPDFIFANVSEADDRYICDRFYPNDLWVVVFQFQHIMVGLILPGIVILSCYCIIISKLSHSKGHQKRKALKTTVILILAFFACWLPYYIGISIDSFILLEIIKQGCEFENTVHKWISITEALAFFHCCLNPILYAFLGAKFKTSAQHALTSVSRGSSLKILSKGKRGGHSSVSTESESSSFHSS

CC(=O)N[C@H](CCCNC(=N)N)C(=O)N[C@H](CCCNC(=N)N)C(=O)N[C@H](CCCNC(=N)N)C(=O)N[C@H](CCCNC(=N)N)C(=O)N[C@H](CCCNC(=N)N)C(=O)N[C@H](CCCNC(=N)N)C(=O)N[C@H](CCCNC(=N)N)C(=O)N[C@H](CCCNC(=N)N)C(=O)N[C@H](CCCNC(=N)N)C(=O)NC[C@H]1O[C@H](O[C@H]2[C@H](O)[C@@H](O)[C@H](N)C[C@@H]2N)[C@H](N)[C@@H](O)[C@@H]1O [Compound 13, D-Arg-9-mer-neamine]
Minimum Inhibitory Concentration [1]: 24.0 mg/liter and 9.64 μM | Minimum Inhibitory Concentration (S. aureus MRSA [2]): 1.5 mg/liter and 0.60 μM | inhibition at 2 µM (CXCR4; read-out: % Inhibition of 12G5 mAb binding to CXCR4, 2 μM): 67.3% | inhibition at 10 µM (CXCR4; read-out: % Inhibition of 12G5 mAb binding to CXCR4, 10 μM): 100% | Minimum Inhibitory Concentration [3]: 48.0 mg/liter and 19.28 μM | Minimum Inhibitory Concentration [4]: 96.0 mg/liter and 38.55 μM | Minimum Inhibitory Concentration (E. Coli-ESBL positive [5]): 8.0 mg/liter and 3.20 μM | Minimum Inhibitory Concentration (S. aureus MSSA [6]): 1.5 mg/liter and 0.60 μM | Minimum Inhibitory Concentration (S. epidermidis MRSE [7]): 0.5 mg/liter and 0.20 μM | Minimum Inhibitory Concentration (E. Coli-ESBL negative [8]): 6.0 mg/liter and 2.40 μM | CC50 (in vitro): 150000 nM | Minimum Inhibitory Concentration (A. baumannii R16998): 128.0 mg/liter and 51.41 μM | Minimum Inhibitory Concentration (Enterobacter aerogenes [9]): 16 mg/liter and 6.40 μM | Minimum Inhibitory Concentration [10]: 3.0 mg/liter and 1.20 μM | Minimum Inhibitory Concentration [11]: 2.0 mg/liter and 0.80 μM | Minimum Inhibitory Concentration [12]: 16.0 mg/liter and 6.40 μM | Minimum Inhibitory Concentration (E. Coli B3095141^r [13]): 6.0 mg/liter and 2.40 μM | Minimum Inhibitory Concentration [14]: 96.0 mg/liter and 38.55 μM | Minimum Inhibitory Concentration [15]: 1.5 mg/liter and 0.60 μM | EC50 [16]: 5100 ± 2900 nM | EC50 (HIV-1 Ba-L): > 50000 nM | EC50 [17]: 2700 ± 500 nM | EC50 [18]: 3000 ± 1000 nM | EC50 [19]: 10400 ± 2700 nM | EC50 [20]: 2400 ± 400 nM | Minimum Inhibitory Concentration [21]: 6.0 mg/liter and 2.40 μM | Minimum Inhibitory Concentration [22]: 96.0 mg/liter and 38.55 μM | EC50 (HIV-1 IIIB): 2300 ± 500 nM | Minimum Inhibitory Concentration [23]: 8.0 mg/liter and 3.20 μM | Minimum Inhibitory Concentration (S. epidermidis MSSE [24]): 0.5 mg/liter and 0.20 μM | Minimum Inhibitory Concentration [25]: 64.0 mg/liter and 25.70 μM | Minimum Inhibitory Concentration [26]: 3.0 mg/liter and 1.20 μM | Minimum Inhibitory Concentration [27]: 12.0 mg/liter and 4.8 μM | Minimum Inhibitory Concentration (Enterobacter cloacae): 8.0 mg/liter and 3.20 μM

Gentamycin
Gentamycin (disk): resistance or sensitivity of the tested strain (S. epidermidis MRSE [28]): s (sensitivity of the tested strain (disk method diameter ≧15 millimeters, equivalent to a MIC ≦4 mg/liter)) | Gentamycin (disk): resistance or sensitivity of the tested strain (S. epidermidis MSSE [29]): s (sensitivity of the tested strain (disk method diameter ≧15 millimeters, equivalent to a MIC ≦4 mg/liter)) | Gentamycin (disk): resistance or sensitivity of the tested strain (E. Coli-ESBL positive [30]): r (resistance of the tested strain (disk method diameter ≦12 millimeters, equivalent to a MIC ≧8 mg/liter)) | Gentamycin (disk): resistance or sensitivity of the tested strain [31]: r (resistance of the tested strain (disk method diameter ≦12 millimeters, equivalent to a MIC ≧8 mg/liter)) | Gentamycin (disk): resistance or sensitivity of the tested strain [32]: r (resistance of the tested strain (disk method diameter ≦12 millimeters, equivalent to a MIC ≧8 mg/liter)) | Gentamycin (disk): resistance or sensitivity of the tested strain (Enterobacter aerogenes [33]): r (resistance of the tested strain (disk method diameter ≦12 millimeters, equivalent to a MIC ≧8 mg/liter)) | Gentamycin (disk): resistance or sensitivity of the tested strain (S. aureus MRSA [34]): s (sensitivity of the tested strain (disk method diameter ≧15 millimeters, equivalent to a MIC ≦4 mg/liter)) | Gentamycin (disk): resistance or sensitivity of the tested strain (E. Coli-ESBL negative [35]): s (sensitivity of the tested strain (disk method diameter ≧15 millimeters, equivalent to a MIC ≦4 mg/liter)) | Gentamycin (disk): resistance or sensitivity of the tested strain (A. baumannii R16998^r): r (resistance of the tested strain (disk method diameter ≦12 millimeters, equivalent to a MIC ≧8 mg/liter)) | Gentamycin (disk): resistance or sensitivity of the tested strain (E. Coli B3095141^r [36]): r (resistance of the tested strain (disk method diameter ≦12 millimeters, equivalent to a MIC ≧8 mg/liter)) | Gentamycin (disk): resistance or sensitivity of the tested strain [37]: r (resistance of the tested strain (disk method diameter ≦12 millimeters, equivalent to a MIC ≧8 mg/liter)) | Gentamycin (disk): resistance or sensitivity of the tested strain [38]: r (resistance of the tested strain (disk method diameter ≦12 millimeters, equivalent to a MIC ≧8 mg/liter)) | Gentamycin (disk): resistance or sensitivity of the tested strain [39]: s (sensitivity of the tested strain (disk method diameter ≧15 millimeters, equivalent to a MIC ≦4 mg/liter)) | Gentamycin (disk): resistance or sensitivity of the tested strain [40]: r (resistance of the tested strain (disk method diameter ≦12 millimeters, equivalent to a MIC ≧8 mg/liter)) | Gentamycin (disk): resistance or sensitivity of the tested strain (S. aureus MSSA [41]): r (resistance of the tested strain (disk method diameter ≦12 millimeters, equivalent to a MIC ≧8 mg/liter))
